Counter-ions that a name gives are not always drawn.
Legend:
CACO2 = test: Antiproliferative activity in human tumor cell lines (CACO2); format: cell-based; conditions: Caco-2, CACO2 colon tumor cell line
Experimental: PROTOCOLS 1, 2, and 3 are described in greater detail hereinbelow. In general, according to PROTOCOLS 1 and 2, the target ABAE and/or Human Tumor cells are exposed to the compound of Formula I for 48 hours. PROTOCOL 3 exposes ABAE cells to the compounds for 4 days. A detailed description of the protocol is as follows:
The antiproliferative activity of the compounds of Formula I of the present invention is evaluated in a panel comprised of human tumor cell lines and an adult bovine aortic endothelial cell line (ABAE). The human tumor cell lines are from
All cell lines are maintained in log phase in RPMI 1640 media, supplemented with 5% fetal calf serum, penicillin/streptomycin and 2 mM L-glutamine. Cultures are renewed after 20 passages with cells from a fresh stock of batch-frozen early passage cells. Cell lines are routinely checked for mycoplasma contamination (Genprobe). In a laminar flow hood, cells (1-5×10^4) are plated into 96-well microtiter plates in a volume of 0.1 ml/well with a bulk microtiter dispenser (Denley). […] At this concentration, dimethylsulfoxide has no effect on cell growth. Compounds are added using a Tomtec dispenser which simultaneously dispenses from one 96-well plate, containing the drug dilutions, to the plates containing the cells. After two days of continuous drug exposure, 50% cold trichloroacetic acid (TCA) is added to 10% final concentration to fix the cells, and after 60 minutes at 4° C., the TCA is aspirated and the plates are washed 5 times with deionized water using a microtiter plate washer. The number of cells on the plate are quantitated using a protein dye-binding assay (Monks et al., 1991). A 0.4% solution of the dye, sulforhodamine B, in glacial acetic acid is added to the plates, and the plates are washed 5 times with 1% glacial acetic acid using the automatic plate washed. The bound stain is solubilized with 0.1 ml of 10 mM Tris base. The optical densities are read from an automatic spectrophotometric plate reader (Dynatech) directly to a main frame computer (VAX 8600).
Positive controls, that include standard chemotherapeutic drugs (i.e., adriamycin, cisplatin, etc.), are included in every experiment.
Background optical density measurements (complete media-cells, and complete media+drug-cells) are automatically subtracted from the appropriate control and test wells. Mean values and standard errors are determined from duplicate wells. A measure is also made of the optical density at time when the drugs are added. The number of cells after treatment (P), as % of control, is calculated for every concentration of drug, as follows: [formula] wherein: T is optical density measurement for treated cells after 48 hours;
C is optical density measurement for untreated cells after 48 hours;
Co is optical density measurement for cells at the time of drug addition.
IC50 of growth inhibition is calculated from the sets of P values using the RS-1 data package (BBN Software).
Antiproliferative Activity in Human Tumor Cell Lines
The antiproliferative activity of the compounds of Formula I is evaluated in the panel comprised of human tumor cell lines as listed in PROTOCOL 1. This assay is a slight modification of PROTOCOL 1. The modifications include:
1) each concentration for each compound is tested in a single well;
2) compounds are tested at 20, 4, 0.8, 0.16 microgram/ml and additionally in some experiments at 100 and 0.32 microgram/ml;
3) samples are pipetted into a 96-well plate for each of the cell lines by a Beckman Biomek 1000 SL robot;
4) after fixing with TCA each well is washed with 0.35 ml distilled water twice, not five times;
5) after staining with sulforhodamine B each well is washed 3 times, not five times;
6) the growth inhibition (I) as % of control, is calculated using the RS-1 data package (BBN Software), for every concentration of drug, as follows: [formula] wherein: T is optical density measurement for treated cells after 48 hours; […]

[1] = system: Adult Bovine Aortic Endothelial (ABAE) cell line; test: Antiproliferative activity in Adult Bovine Aortic Endothelial (ABAE) cell line, PROTOCOL 1; format: cell-based; conditions: Bos taurus; ABAE cells, 48 hours exposure
Experimental: The antiproliferative activity of the compounds of Formula I in an Adult Bovine Aortic Endothelial (ABAE) cell line and in Human Tumor cells lines is evaluated in three similar assays that measure growth inhibition. The assays are identified as follows: PROTOCOLS 1, 2, and 3 are described in greater detail hereinbelow. In general, according to PROTOCOLS 1 and 2, the target ABAE and/or Human Tumor cells are exposed to the compound of Formula I for 48 hours. PROTOCOL 3 exposes ABAE cells to the compounds for 4 days. A detailed description of the protocol is as follows: The antiproliferative activity of the compounds of Formula I of the present invention is evaluated in a panel comprised of human tumor cell lines and an adult bovine aortic endothelial cell line (ABAE). The human tumor cell lines are from All cell lines are maintained in log phase in RPMI 1640 media, supplemented with 5% fetal calf serum, penicillin/streptomycin and 2 mM L-glutamine. Cultures are renewed after 20 passages with cells from a fresh stock of batch-frozen early passage cells. Cell lines are routinely checked for mycoplasma contamination (Genprobe). […] The number of cells on the plate are quantitated using a protein dye-binding assay (Monks et al., 1991). […] The optical densities are read from an automatic spectrophotometric plate reader (Dynatech) directly to a main frame computer (VAX 8600). […] Mean values and standard errors are determined from duplicate wells. […] The number of cells after treatment (P), as % of control, is calculated for every concentration of drug, as follows: [formula] wherein: T is optical density measurement for treated cells after 48 hours; C is optical density measurement for untreated cells after 48 hours; Co is optical density measurement for cells at the time of drug addition. IC50 of growth inhibition is calculated from the sets of P values using the RS-1 data package (BBN Software). Table 2 presents the results depicting the antiproliferative activity of the compounds of Formula I against an adult bovine aortic endothelial cell line (ABAE), as evaluated by PROTOCOL 1 and PROTOCOL 3. […]

CN(C)CC(=O)Nc1cc(N(C)C)c2c(c1O)C(=O)C1=C(O)[C@]3(O)C(=O)C(C(N)=O)=C(O)[C@@H](N(C)C)C3CC1C2 (stereo partly drawn) [Example 2, [4S-(4a,12aa-1-4,7-Bis(dimethylamino)-9-[[(dimethylamino)acetyl]amino]]-1,4,,4a,5,5a,6,11,12a-octahvdro-3,10,12,12a-tetrahydroxy-1,11-dioxo-2-napththacenecarboxamidedihydrochloride]
IC50 (CACO2): 5.1 µg/mL | IC50 [1]: 6.6 µg/mL

CCCCCCNCC(=O)Nc1cc(N(C)C)c2c(c1O)C(=O)C1=C(O)[C@]3(O)C(=O)C(C(N)=O)=C(O)[C@@H](N(C)C)C3CC1C2 (stereo partly drawn) [Example 4, [4S-(4α,12aα)]-4,7-Bis(dimethylamino)-9-[(hexylamino)acetyl]amino]-1,4,4a,5,5a,6,11,12a-octahydro-3,10,12,12a-tetrahydroxy-1,11-dioxo-2-naphthacenecarboxamide dihydrochloride]
IC50 (CACO2): 1.9 µg/mL | IC50 [1]: 2.4 µg/mL

CCCCCCCNCC(=O)Nc1cc(N(C)C)c2c(c1O)C(=O)C1=C(O)[C@]3(O)C(=O)C(C(N)=O)=C(O)[C@@H](N(C)C)C3CC1C2 (stereo partly drawn) [Example 5, [4S-(4α,12aα)]-4,7-Bis(dimethylamino)-9-[[(heptylamino)acetyl]amino]-1,4,4a,5,5a,6,11,12a-octahydro-3,10,12,12a-tetrahydroxy-1,11-dioxo-2-naphthacenecarboxamide dihydrochloride]
IC50 (CACO2): 3.7 µg/mL | IC50 [1]: 2.2 µg/mL
